The target in one data set is T1, human PAC1 receptor (Homo sapiens, UniProt P41586).
T1 construct: SHSY-5Y (human neuroblastoma cell line) and RG-2 (rat glioma cell line) cells endogenously express human and rat PAC1 receptors, respectively; endogenous in cells; host or cells: SHSY-5Y human neuroblastoma cells
T1 sequence (P41586 21-468): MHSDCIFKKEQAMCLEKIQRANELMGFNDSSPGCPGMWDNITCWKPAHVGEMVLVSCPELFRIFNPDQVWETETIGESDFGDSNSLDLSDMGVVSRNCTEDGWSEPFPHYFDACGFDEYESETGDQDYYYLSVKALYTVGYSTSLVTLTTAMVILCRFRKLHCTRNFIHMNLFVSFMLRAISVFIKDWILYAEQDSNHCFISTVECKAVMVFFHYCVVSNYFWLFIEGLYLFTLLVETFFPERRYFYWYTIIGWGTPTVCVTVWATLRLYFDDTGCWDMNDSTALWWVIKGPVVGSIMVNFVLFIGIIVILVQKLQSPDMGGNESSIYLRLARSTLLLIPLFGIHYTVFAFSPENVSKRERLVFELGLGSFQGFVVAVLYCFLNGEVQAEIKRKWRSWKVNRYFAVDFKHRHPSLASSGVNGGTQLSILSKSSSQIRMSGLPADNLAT
The data set can be described thus: LANCE Ultra cAMP accumulation antagonist assay in SHSY-5Y cells.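 Also: inhibition of cAMP accumulation evoked by PAC1 agonist at its EC80 in SHSY-5Y cells endogenously expressing receptor, 30 min preincubation then 15 min agonist, TR-FRET readout.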 It is filed as cell-based.

A short description of the next data set: in vitro. The following applies: rat, plasma.
Data set [1] deals with T2, rat PAC1 receptor (Rattus norvegicus, UniProt P32215).
T2 construct: SHSY-5Y (human neuroblastoma cell line) and RG-2 (rat glioma cell line) cells endogenously express human and rat PAC1 receptors, respectively; endogenous in cells; host or cells: RG-2 rat glioma cells
T2 sequence (P32215 20-523): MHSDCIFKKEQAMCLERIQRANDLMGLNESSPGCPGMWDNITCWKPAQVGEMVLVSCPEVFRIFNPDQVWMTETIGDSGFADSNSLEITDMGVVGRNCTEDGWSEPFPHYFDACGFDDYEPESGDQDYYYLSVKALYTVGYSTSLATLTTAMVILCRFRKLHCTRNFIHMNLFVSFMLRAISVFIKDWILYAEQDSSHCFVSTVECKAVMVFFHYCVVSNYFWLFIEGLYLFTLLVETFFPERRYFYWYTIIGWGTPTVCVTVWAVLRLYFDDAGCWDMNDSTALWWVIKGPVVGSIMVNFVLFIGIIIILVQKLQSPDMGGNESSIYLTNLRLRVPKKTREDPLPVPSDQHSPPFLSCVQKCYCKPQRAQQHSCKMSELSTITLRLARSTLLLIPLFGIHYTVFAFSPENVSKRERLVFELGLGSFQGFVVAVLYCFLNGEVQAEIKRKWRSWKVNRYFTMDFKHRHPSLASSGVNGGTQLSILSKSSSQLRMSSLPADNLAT
The data set can be described thus: LANCE Ultra cAMP accumulation antagonist assay in RG-2 cells.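 Also: RG-2 rat glioma cells endogenously expressing PAC1, test peptide preincubated 30 min, then PAC1 agonist added at its EC80 for 15 min, cAMP accumulation read by LANCE Ultra.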 Type of data set: cell-based. For orientation: Time-resolved FRET reads energy transfer from a long-lived donor to a nearby acceptor.

The target of a further data set is T3, PAC1 (Rattus norvegicus, UniProt P32215).
T3 construct: Naive male Sprague Dawley® rats aged 8-12 weeks at the time of the study were purchased from Charles River Laboratories; tissue Charles River Laboratories; host or cells: live male Sprague Dawley rats; dermal blood flow on abdominal skin
T3 sequence (P32215 20-523): T2 sequence (P32215 20-523)
Put plainly: Rat maxadilan-induced increase in blood flow (MIIBF) PD model, laser Doppler imaging. It is filed as in vivo. Here is the method:
PAC1 peptide antagonists were also evaluated in an in vivo pharmacodynamic model—a model of maxadilan-induced increase in blood flow.
Naive male Sprague Dawley® rats aged 8-12 weeks at the time of the study were purchased from Charles River Laboratories. Animals were group-housed in non-sterile, ventilated micro-isolator housing in Amgen Assessment and Accreditation of Laboratory Animal Committee (AAALAC)-accredited facility. Animals had ad libitum access to pelleted feed (Harlan Teklad 2020X, Indianapolis, IN) and water (on-site generated reverse osmosis) via automatic watering system.
All PAC1 peptides were tested in a rat maxadilan-induced increase in blood flow (MIIBF) pharmacodynamic (PD) model with a laser Doppler imaging. A dosing solution of maxadilan (Bachem, H6734.0500) was prepared fresh daily by diluted maxadilan stock solution (0.5 mg/mL) in 1× PBS to the final concentration of 0.5 μg/mL. All tested peptides were prepared in 1× PBS at different concentrations depend on the dose required for the experiment and given in a single bolus i.v. or s.c. injection. A laser Doppler imager (LDI-2, Moor Instruments, Ltd, Wilmington, Del.) was used to measure dermal blood flow (DBF) on the shaved skin of the rat abdomen with a low-power laser beam generated by a 633 nm helium-neon bulb. The measurement resolution was 0.2 to 2 mm, with scanning distances between the instrument aperture and the tissue surface of 30 cm. In this report, DBF was measured and expressed as % change from baseline [100×(individual post-CAP flux-individual baseline flux)/individual baseline flux] and further calculated to % Inhibition to quantify the magnitude of drug effect [Mean of vehicle % change from BL−individual drug treated rat % change from BL)/Mean of vehicle % change from BL].
On the test day, following anesthetization with propofol, the rat's abdominal area was shaved and each animal was placed in a supine position on a temperature-controlled circulating warm-water pad to maintain a stable body temperature during the study. After a 10 to 15 minute stabilization period, a rubber O-ring (0.925 cm inner diameter, O-Rings West, Seattle, Wash.) was placed on the rat abdomen without directly positioning it over a visible blood vessel while the rat placed in a supine position on a temperature-controlled circulating warm-water pad to maintain a stable body temperature during the study. After placement of an O-ring on the selected area, a baseline (BL) DBF measurement was taken. After the BL scan, PAC1 peptides were administrated either 5 min for i.v., or 15 min for s.c. then followed by 20 μL (in 0.5 μg/mL) intradermal injection of maxadilan at the center of the O-ring. The post-maxadilan DBF was measured at 30 min and the post peptides time was 35 min for i.v. and 45 min for s.c. respectively. The O-ring serves as an area of interest in which the DBF will be analyzed within the O-ring.
All DBF results were expressed as the mean±SEM. A one-way ANOVA followed by Dunnett's Multiple Comparison Test (MCT) was used to assess the statistical significance of PAC1 peptides effects relative to the vehicle within the study. A p<0.05 was used to determine significance between any two groups.

For data set [2] the following is noted: rat plasma, 37° C., 0 h (baseline).
Description: (§1) To model degradation in blood, PAC1 peptides of the present application were incubated in vitro with rat plasma. The stability analysis was conducted in a manner similar to as previously described by Souverain et al. (J. of Pharmaceutical and Biomedical Analysis, 35 (2004) 913-920).
(§2) Briefly, PAC1 peptides were spiked into rat plasma and incubated at 37° C. for up to 6 hours. Employing the reverse stability technique for various time points, plasma samples were quenched by the addition of perchloric acid in water containing internal standard (IS) and vortexed undergoing protein precipitation extraction (PPE). Following the vortex mix, samples were centrifuged and the supernatant containing PAC1 peptide and IS was subsequently analyzed using a liquid chromatography mass-spectrometry (LC-MS) system (Sciex® API 5500). The peak area ratio of intact PAC1 peptide to IS was determined for each time point. Peptide stability was reported as a percentage of the peak area ratio at each time point relative to the peak are ratio of a baseline sample (pre-incubation).
In data set [3] the target is T4, rat PAC1 receptor (rat, UniProt P32215 20-523).
T4 sequence: T2 sequence (P32215 20-523)
The data set can be described thus: cell-based or functional assay.

Bridges are numbered along the chain shown (N, C = ends). Where no end group is shown, it is not given here.
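For % Intact Peptide Remaining in this document: peptides incubated in vitro in rat plasma at 37 °C up to 6 h, intact peptide quantified by LC-MS versus internal standard, expressed relative to pre-incubation baseline (100%).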

Description for in vitro: as §1, §2

Broadly, the IC50 is the concentration that inhibits the measured activity by half. A higher IC50 goes with weaker potency. Turning to `CC[C@H](C)[C@H](NC(=O)[C@H](C)NC(=O)[C@H](CCCCN)NC(=O)[C@H](CCCNC(=N)N)NC(=O)[C@H](Cc1ccccc1)NC(=O)[C@H](CCC(N)=O)NC(=O)[C@@H]1CSSC[C@H](N)C(=O)N[C@@H](CC(=O)O)C(=O)N[C@@H](C)C(=O)N[C@@H]([C@@H](C)O)C(=O)N1)C(=O)N[C@@H](CC(=O)O)C(=O)N[C@@H](CC(=O)O)C(=O)N[C@H]1CSSC[C@@H](C(=O)N[C@@H](CCSC)C(=O)N[C@@H](CCCCN)C(=O)N[C@@H](CCC(N)=O)C(=O)N[C@@H](CCCCN)C(=O)N[C@@H](CCCCN)C(=O)N[C@@H](CCCCN)C(=O)N[C@@H](CCC(=O)O)C(=O)N[C@@H](Cc2ccccc2)C(=O)N[C@@H](CCCCN)C(=O)N[C@@H](C)C(=O)NCC(N)=O)NC(=O)C(C)(C)NC(=O)[C@H](CCCCN)NC(=O)[C@H](Cc2ccccc2)NC(=O)[C@H](C(C)C)NC(=O)[C@H](CO)NC(=O)CNC(=O)[C@@H]2CCCN2C(=O)[C@H](C(C)C)NC(=O)[C@H](CC(N)=O)NC(=O)[C@H](CO)NC(=O)[C@H](Cc2c[nH]cn2)NC(=O)[C@H](Cc2c[nH]cn2)NC(=O)[C@H](C)NC(=O)[C@H](CCC(N)=O)NC(=O)[C@H](CCCCN)NC(=O)[C@H](CCC(N)=O)NC1=O` [SEQ ID NO 283], the IC50 at human PAC1 receptor fell in the range of 1 to 100 nM. Further, in “in vitro”, the fraction remaining at 0.5 h is 87.5%, the amount remaining at 1 h amounted to 112%, the share remaining at 2 h was 101% and the amount remaining at 4 h was 115%. Moreover, the fraction remaining at 6 h in the data set “in vitro” turned out to be 98.9%. The molecule further registered a concentration for half-maximal inhibition (IC50) on rat PAC1 receptor [1] of 0.01 to 1 nM. Moreover, the “inhibition of MIIBF (dermal blood flow)” value against PAC1 (single bolus i.v., lowest dose of 0.1 mg/kg, 5 min prior to maxadilan, 35 min post peptide treatment) was “statistically significant inhibition”. Further, the “% Intact Peptide Remaining” value in data set [2] is 100%.

As for “CDATCQFRKAIDDCYYRSWHSNVPGSVFKACMKQKKKEWKAG-NH2 (disulfide 1-5, 14-31) [SEQ ID NO 77]”, the IC50 against human PAC1 receptor lay within 0.01 to 1 nM. Moreover, in the data set “in vitro”, the share remaining at 0.5 h came out at 97.9%, the fraction remaining at 1 h is 106%, the share remaining at 2 h was determined as 104% and the fraction remaining at 4 h was 89.6%. For the same molecule, the amount remaining at 6 h in “in vitro” was determined as 110%. In addition, the IC50 against rat PAC1 receptor [1] is 0.01 to 1 nM. Moreover, the “inhibition of maxadilan-induced increase in DBF” value against PAC1 (single bolus s.c., lowest dose of 0.3 mg/kg, 15 min prior to maxadilan, 45 min post peptide treatment) is on record as “statistically significant inhibition”. The “% Intact Peptide Remaining” value in data set [2] was 100%.

In the case of “GCDATCQFRKAIDDCVRQAHHSNVPGSVFKACMKQKKKEWKAGH (disulfide 2-6, 15-32) [SEQ ID NO 88]”, the IC50 against human PAC1 receptor lay in the range of 0.01 to 1 nM. In the data set “in vitro”, the amount remaining at 0.5 h came to 81.4%, the share remaining at 1 h is 90.8%, the amount remaining at 2 h is 84% and the share remaining at 4 h is 110%. Further, the amount remaining at 6 h in “in vitro” came out at 100%. The same molecule returned an IC50 on rat PAC1 receptor [1] of 0.01 to 1 nM. The “% Intact Peptide Remaining” value in data set [2] is 100%.

B1: SEQ ID NO 450 (peptide)
peptide: CDATCQFRKAIDDCARQAYHSFKACMKQKKKEWKH
modifications: disulfide 1-5, 14-25
Consider B1, for which the “rPAC1 IC50 with maxadilan challenge (cAMP assay, RG-2 cells); 100 nM > B ≥ 1 nM” value (from here on “rPAC1 IC50 with maxadilan challenge”) with rat PAC1 receptor [3] is below 100 nM.

B2: SEQ ID NO 449 (peptide)
peptide: CDATCQFRKAIDDCARQAYHSACMKQKKKEWKAGH
modifications: disulfide 1-5, 14-23
For the molecule B2, the “rPAC1 IC50 with maxadilan challenge” value with rat PAC1 receptor [3] was below 100 nM.

B3: SEQ ID NO 451 (peptide)
peptide: CDATCQFRKAIDDCARQAYHSFKACMKQKKKEWKAH
modifications: disulfide 1-5, 14-25
Regarding B3, the “rPAC1 IC50 with maxadilan challenge” value with rat PAC1 receptor [3] is below 100 nM.
